Entries after “also recorded” stand apart in the source; their conditions may differ. Like-named read-outs stand apart in the source and are kept apart here.
Tests used:
[1] = target: human β2-adrenergic receptor (Homo sapiens, UniProt P07550); test: binding to human β2-adrenergic receptor (competition curves); details: for adrenergic receptor agonist selectivity, in words: binding studies
Protocol: (§1) The four isomers of desformoterol, (R,R)-, (S,S)-, (R,S)-, and (S,R)-, and a 1:1 mixture of the (R,R)- and the (S,S)-enantiomers, were screened, in duplicate, at three concentrations (10^-9, 10^-7, 10^-5 M) for binding to human β1 and β2 -adrenergetic receptors. The compounds were then tested at ten concentrations in duplicate in order to obtain full competition curves. Reference compounds were simultaneously tested at eight concentrations.

[2] = target: human β1-adrenergic receptor (Homo sapiens, UniProt P08588); test: binding to human β1-adrenergic receptor (competition curves)
Sequence of human β1-adrenergic receptor (P08588 whole entry): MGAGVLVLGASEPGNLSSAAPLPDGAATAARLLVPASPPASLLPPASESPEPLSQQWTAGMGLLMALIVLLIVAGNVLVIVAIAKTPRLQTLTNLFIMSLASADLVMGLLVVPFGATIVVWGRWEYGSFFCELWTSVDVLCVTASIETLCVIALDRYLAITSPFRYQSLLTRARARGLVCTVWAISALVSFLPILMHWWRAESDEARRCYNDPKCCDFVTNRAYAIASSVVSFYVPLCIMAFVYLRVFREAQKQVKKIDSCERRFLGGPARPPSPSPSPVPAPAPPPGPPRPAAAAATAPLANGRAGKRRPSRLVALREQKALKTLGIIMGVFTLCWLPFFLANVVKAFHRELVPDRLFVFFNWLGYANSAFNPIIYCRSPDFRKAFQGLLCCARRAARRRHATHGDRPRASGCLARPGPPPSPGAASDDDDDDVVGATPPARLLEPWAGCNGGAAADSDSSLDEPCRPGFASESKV
Protocol: as §1

[3] = stability of desformoterol according to conditions; assay type: physicochemical; details: pH of the environment
Text: It has been observed that the stability of desformoterol can vary according to conditions.

[4] = when inhaled; background statement; cited from earlier work
[5] = human β2-adrenergic receptor, ten concentrations in duplicate (reference compounds eight), read-out: IC50 β2
[6] = human β1-adrenergic receptor, ten concentrations in duplicate (reference compounds eight), read-out: IC50 β1

Sequence of human β2-adrenergic receptor (P07550 whole entry): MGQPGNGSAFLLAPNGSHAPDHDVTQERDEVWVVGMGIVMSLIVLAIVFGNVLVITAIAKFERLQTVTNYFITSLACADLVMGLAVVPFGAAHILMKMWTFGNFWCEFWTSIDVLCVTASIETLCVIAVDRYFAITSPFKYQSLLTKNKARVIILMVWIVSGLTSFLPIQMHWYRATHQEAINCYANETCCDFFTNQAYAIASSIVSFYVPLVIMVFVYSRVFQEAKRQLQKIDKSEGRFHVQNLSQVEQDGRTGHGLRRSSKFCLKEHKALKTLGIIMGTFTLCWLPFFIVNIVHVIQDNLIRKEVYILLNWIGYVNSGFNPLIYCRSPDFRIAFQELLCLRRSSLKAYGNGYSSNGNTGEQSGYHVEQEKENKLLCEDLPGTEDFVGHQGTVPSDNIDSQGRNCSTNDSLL

SMILES	IC50 [1, 5] [µM]	binding/affinity at β1 site, in words ([2]; human β1-adrenergic receptor)	adrenergic receptor agonist selectivity, in words [1]	binding/affinity at β2 site, in words ([1]; human β2-adrenergic receptor)	β1/β2 Selectivity ([1]; ratio of IC50 values β1/β2)	other results
COc1ccc(C[C@@H](C)NC[C@@H](O)c2ccc(O)c(N)c2)cc1 [(S,R)-Desformoterol]	1.89	Neither (R,S)- nor (S,R)-desformoterol showed high affinity for the β1 receptor	–	–	–	inhibition at 10 µM ([2]; at 10^-5 M): 22%
COc1ccc(C[C@@H](C)NC[C@H](O)c2ccc(O)c(N)c2)cc1 (relative stereo) [(R,R)-/(S,S)-Racemate of Desformoterol]	0.0813	–	highly selective β-adrenergic receptor agonists	significant binding only at the β2 -site	63	IC50 [2, 6]: 5.14 µM
COc1ccc(CC(C)NCC(O)c2ccc(O)c(N)c2)cc1 (stereo not drawn) [desformoterol, 3-Amino-4-hydroxy-α-[[[2-(4-methoxyphenyl)-1-methylethyl]amino]methyl]-benzenemethanol]	–	–	highly selective β2 -adrenergic receptor agonist	–	–	pH of maximum stability [3]: 2
COc1ccc(C[C@H](C)NC[C@@H](O)c2ccc(O)c(N)c2)cc1 [(S,S)-Desformoterol]	–	lacked affinity for both β-adrenergic sites	–	lacked affinity for both β-adrenergic sites	< 6	IC50 [1]: > 10 µM; IC50 [2]: 64.7 µM
COc1ccc(C[C@H](C)NC[C@H](O)c2ccc(O)c(N)c2)cc1 [(R,S)-Desformoterol]	3.14	Neither (R,S)- nor (S,R)-desformoterol showed high affinity for the β1 receptor; also recorded: comparable to that of atenolol at the β1 -site	–	–	< 1	IC50 [2, 6]: 1.79 µM
COc1ccc(C[C@@H](C)NC[C@H](O)c2ccc(O)c(N)c2)cc1 [(R,R)-Desformoterol, (R,R)-3-amino-4-hydroxy-α-[[[2-(4-methoxyphenyl)-1-methylethyl]amino]methyl]-benzenemethanol]	–	–	highly selective β-adrenergic receptor agonists	significant binding primarily at the β2 -site	89	IC50 [1]: 0.0356 µM; selectivity (β1/β2) for the β2-receptor ([1]; ratio of IC50 values β1/β2): approximately 89 fold; IC50 [2]: 3.18 µM
COc1ccc(C[C@@H](C)NC[C@H](O)c2ccc(O)c(NC=O)c2)cc1 (relative stereo) [Formoterol]	–	–	–	–	–	bronchodilating effect, in words [4]: long lasting bronchodilating effect
